# Reference: patent US4094908A, “Alpha-substituted benzhydrol derivatives” (Richter Gedeon Vegyeszeti Gyar Rt., priority 1973, dated 1978)
# How the values were obtained:
# hexobarbital oxidase [1] = test: Enzyme inhibiting ability in vivo: change of hexobarbital oxidase activity (hexobarbital narcosis period); design: species or system Female Wistar rats; conditions: in words, even 48 hours after administration
# Description: (§1) Female Wistar rats, each weighing 80 to 100 g., were treated orally with a single 0.3 mM/kg. dosage of the active agent. 24 and 48 hours after the administration of the active agent, respectively, the animals were narcotized with 40 mg./kg. i.v. dosage of hexobarbital sodium, and the time elapsed until complete wakening was measured (Noordhock, J.: Eur. J. Pharmacol. 3, 242, 1968). The data were recorded, and the mean values, the standard errors, as well as the percentage increase with respect to the controls were calculated for each group. […] The hexobarbital concentration of the plasma, measured on the instant of wakening, was the same for both the treated and the control animals, thus the increase of narcosis period was not due to a certain central nervous interaction (Jori, A., Bianchatti, A., Presentini, P. E.: Biochem. Pharmacol. 19, 2687, 1970).
# [2] = system: liver microsomal enzyme system; test: Promotion or inhibition of the liver microsomal enzyme system; format: in vivo; conditions: in words
# Excerpt: Tests per the methods described herein have shown compounds to be either effective in the promotion or inhibition of the liver microsomal enzyme system as follows: […]
# central nervous system = format: in vivo, mice and rats; conditions: in words; in contrast with phenobarbital
# Excerpt: The central nervous activities of the compounds according to the invention were examined on mice and rats with the following methods: electroshock (Swinyard, E. A., Brown, W. C., Goodman, L. S.: J. Pharmacol. Exp. Ther. 106, 319, 1952), metrazol spasm (Everett, G. M., Richards, R. K.: J. Pharmacol. Exp. Ther. 81, 402: 1944), thiosemicarbezide spasm (Da Venzo, J. P. Greig, M. E., Cormin, M. A.: Amer. J. Physiol. 201, 833: 1961), strychnine spasm (Kerley, T. L., Richards, A. G., Begley, R. W., Abreu, B. B. Wesver, L. C.: J. Pharmacol. Exp. Ther. 132, 360: 1961), nicotine spasm (Stone, C. A., Mecklenburg, K. L., Torhans, M. L.: Arch. Int. Pharmacodyn. 117, 419: 1958), rotarod test (Kinnard, W. C., Carr, C. J.: J. Pharmacol. Expt. Ther. 121, 3, 54: 1957), physistigmine lethality preventing effect (Nose, T., Kojima, M.: Europ. J. Pharmacol. 10, 83: 1970), yohimbine potentiation effect (Quinton, R. M.: Brit. J. Pharmacol. 21, 51: 1963), and analgesic activity (Bianchi, G., Franceschini, J.: Brit. J. Pharm. Chemother. 9, 280: 1954). As reference substance, phenobarbital was used. […]
# hexobarbital oxidase [3] = test: Enzyme-inducing potency: in vivo hexobarbital oxidase activity (duration of hexobarbital narcosis); design: species or system Female Wistar rats; conditions: 24 hours before hexobarbital
# Description: as §1, with “Female Wistar rats, each weighing 80 to 100 g., were treated orally with a single 0.3 mM/kg. dosage of the active agent.” left out
# The enzyme-inducing potency of the new compounds was determined by several methods. One of these methods was the in vivo measurement of hexobarbital oxidase activity.
# The decrease of narcosis period is due to the fact that the new compounds according to the invention accelerate the elimination of hexobarbital, a foreign substance, from the body. When administering the compound to be tested in a single dosage and measuring the duration of hexobarbital narcosis 24 hours after the administration, the following results are obtained: […]
# [4] = Toxicity: perished animals/tested animals; format: in vivo
# Excerpt: Despite its disadvantageous properties, phenobarbital is widely used in the treatment of neonatal jaundice. In order to enable a better comparison, Table 8 indicates the respective dosages in which phenobarbital causes lethal respiration paralysis, while the compounds according to the invention are completely innocuous.
# [5] = system: UDP-glucoronyltransferase; test: UDP-glucuronyltransferase activity of liver tissues removed from pre-treated animals (bilirubin conjugation); format: in vivo; conditions: liver tissues of pre-treated animals incubated with bilirubin
# Description: In an in vivo test, liver tissues removed from animals pre-treated with compounds of the formula (I) were incubated in the presence of bilirubin, in order to determine the UDP-glucoronyltransferase activity of the liver tissues (Adlard, B. P. F., Lester, R. G., Lathe, G. H.: Biochem Pharmacol. 18, 59, 1969).
# [6] = system: bromosulfophthalein elimination; test: Bromosulfophthalein (BSP) concentration of the plasm after pre-treatment; format: in vivo; conditions: 24 hours after pre-treatment; after i.v. bromsulfophthaleine
# Description: The bromosulfophthalein (BSP) concentration of the plasm was determined 24 hours after pre-treatment with the compounds of the formula (I) and after the intravenous administration of bromsulfophthaleine, respectively (Varga, F., Fisher, E.: Acta Physiol. Hung. 36, 431, 1969).
# meprobamate elimination = test: Biological halving period of meprobamate after pre-treatment; format: in vivo; conditions: 24 hours after pre-treatment
# Description: The biological halving period of meprobamate was determined 24 hours after pre-treatment with the compounds of the formula (I) (Ludwig, B. J., Hoffman, A. J.; Arch. Biochem. 72, 234, 1957).
# [7] = system: liver microsomal enzyme system; test: Biological halving period of hexobarbital and hexobarbital concentration at wakening; format: in vivo; conditions: pre-treated 24 hours prior to hexobarbital; female rats 150 g
# bilirubin elimination = test: Bilirubin elimination under in vivo conditions; design: species or system rats
# Description: When examining the bilirubin elimination under in vivo conditions on rats pre-treated with E 15 or phenobarbital, respectively, and challenged intravenously with a dosage of 30 mg./kg. of free bilirubin, the following biological halving periods were determined (Krueger, H., Higginson, J.: Proc. Soc. Exp. Biol. Med. 107, 43, 1961): […]
Structure (SMILES),"Inhibition of the microsomal enzyme / xenobiotic elimination, duration (hexobarbital oxidase [1])",Potency among the enzyme inducing or inhibiting compounds [2],Central nervous effects (central nervous system),Effect on the liver microsomal enzyme system (inducing or inhibiting) [2],Duration and strength of inducing effect compared with phenobarbital [2],Sleeping period ± standard error (hexobarbital oxidase [3]; 5 mg./kg. single dosage),Sleeping period ± standard error (hexobarbital oxidase [3]; 10 mg./kg. single dosage),Sleeping period ± standard error (hexobarbital oxidase [3]; 20 mg./kg. single dosage),Sleeping period ± standard error (hexobarbital oxidase [3]; 40 mg./kg. single dosage),Perished animals/tested animals ([4]; 40 mg./kg),Perished animals/tested animals ([4]; 80 mg./kg),Perished animals/tested animals ([4]; 160 mg./kg),Perished animals/tested animals ([4]; 320 mg./kg),Perished animals/tested animals ([4]; 640 mg./kg),Conjugated bilirubine [5] [µg/g/h],BSP concentration of the plasm [6] [μg./mg. plasm],also measured
"C=CC(O)(c1ccccc1)c1ccc(OC)cc1OC (stereo not drawn) [2,4-dimethoxy-α-vinylbenzhydrol, 2,4-dimethoxy-α-vinyl-benzhydrol]","long-lasting inhibition, the degree of which remains significant even 48 hours after administration",particularly potent,–,–,–,–,–,–,–,–,–,–,–,–,–,–,–
"C=CC(O)(c1ccccc1)c1ccccc1F (stereo not drawn) [2-fluoro-α-vinyl-benzhydrol, 2-Fluoro-α-vinyl-benzhydrol]",–,–,no central nervous effects,particularly advantageous inducing effect,reaches that of phenobarbital,–,–,–,–,–,–,–,–,–,–,–,–
"C=CC(O)(c1ccccc1)c1ccc(Cl)c(Cl)c1 (stereo not drawn) [3,4-dichloro-α-vinylbenzhydrol, 3,4-dichloro-α-vinyl-benzhydrol]",–,particularly potent,–,–,–,–,–,–,–,–,–,–,–,–,–,–,–
"CCC(O)(c1ccccc1)c1cccc(Cl)c1 (stereo not drawn) [E 9, 3-chloro-α-ethyl-benzhydrol]",–,–,no central nervous effects,particularly advantageous inducing effect,reaches that of phenobarbital,21.7 ± 2.0,15.2 ± 1.4,13.6 ± 1.4,12.4 ± 1.2,0/10,0/10,0/10,0/10,0/10,36.7 ± 3.2,7.6,–
"CCC(O)(c1ccccc1)c1ccc(Cl)cc1Cl (stereo not drawn) [E 11, 2,4-dichloro-α-ethyl-benzhydrol]",–,–,no central nervous effects,particularly advantageous inducing effect,reaches that of phenobarbital,22.0 ± 2.1,16.4 ± 1.6,15.0 ± 1.4,13.0 ± 1.2,0/10,0/10,0/10,0/10,0/10,35.7 ± 2.8,5.4,t1/2 (biological halving period of meprobamate) (meprobamate elimination): 2.8 hours; t1/2 (biological halving period of hexobarbital) [7]: 26 min.
"CCC(O)(c1ccccc1)c1cccc(C(F)(F)F)c1 (stereo not drawn) [E 15, 3-Trifluoromethyl-α-ethyl-benzhydrol]",–,particularly potent,no central nervous effects,particularly advantageous inducing effect,reaches that of phenobarbital,18.0 ± 1.7,14.2 ± 1.5,10.6 ± 1.2,8.8 ± 0.9,0/10,0/10,0/10,0/10,0/10,37.4 ± 3.6,5.0,"t1/2 (biological halving period of meprobamate) (meprobamate elimination): 2.1 hours; t1/2 (biological halving period of hexobarbital) [7]: 23 min.; t1/2 (biological halving period of bilirubin) (bilirubin elimination; pre-treated rats, 30 mg./kg. free bilirubin i.v.): 7 min; Acceleration of bilirubin elimination compared with phenobarbital (bilirubin elimination; rats, in words): about twice stronger than that of phenobarbital"
"CCC(O)(c1ccccc1)c1ccccc1OC (stereo not drawn) [E 16, 2-methoxy-α-ethyl-benzhydrol]",inhibit the elimination of xenobiotic agents and the inactivation thereof in the liver for a long time,particularly potent,–,–,–,–,–,–,–,–,–,–,–,–,–,–,"Inhibition of the microsomal enzyme / xenobiotic elimination, duration (hexobarbital oxidase [1]; listed as 2-methoxy-α-ethylbenzhydrol): long-lasting inhibition, the degree of which remains significant even 48 hours after administration"
"CCN(CC)CCOc1ccc(C(O)(CC)c2ccccc2)cc1 (stereo not drawn) [E 17, 4-(β-diethylaminoethoxy)-α-ethyl-benzhydrol]",inhibit the elimination of xenobiotic agents and the inactivation thereof in the liver for a long time,particularly potent,–,–,–,–,–,–,–,–,–,–,–,–,–,–,"Inhibition of the microsomal enzyme / xenobiotic elimination, duration (hexobarbital oxidase [1]; listed as 4-(β-diethylaminoethoxy)-α-ethyl-benzhydrol): long-lasting inhibition, the degree of which remains significant even 48 hours after administration"
"CCC(O)(c1ccccc1)c1cc(C)ccc1C (stereo not drawn) [E 20, 2,5-dimethyl-α-ethyl-benzhydrol]",–,particularly potent,no central nervous effects,particularly advantageous inducing effect,reaches that of phenobarbital,23.8 ± 1.9,18.76 ± 1.9,–,13.0 ± 1.2,–,–,–,–,–,35.1 ± 2.6,–,–
